Literature values, collected in patent US11529357B2, “Injectable carbamazepine composition essentially free of 10-bromo-carbamazepine” (H. Lundbeck A/S, priority 2019, dated 2022).

In the case of `NC(=O)N1c2ccccc2C=Cc2ccccc21` [carbamazepine, 5H-dibenzo[b,f]azepine-5-carboxamide], the average oral bioavailability is given as 65-70%.
